Source: patent US8846873B2, “Antibodies directed to GPNMB and uses thereof” (Celldex Therapeutics, Inc., priority 2004, dated 2014)

Legend:
LOXIMVI = assay: Clonogenic assay with 1.15.1-AE; type: cell-based, human
Method: (§1) Melanoma cell lines were plated onto flat bottom 96-well tissue culture plates (Becton Dickinson, Franklin Lakes, N.J., USA). On day 2 or when cells reach ˜25% confluency, various concentrations of unconjugated and Auristatin E-conjugated 1.15.1 were added to cells. MAb 2.6.2-AE was also used as a conjugated isotype control in this study. On day 5, the cells were trypsinized, transferred to 6-well tissue culture plates and incubated at 37° C. Plates were examined daily. On days 8-10, all plates were Giemsa stained and colonies on the plates were counted.

WM-266-4 = assay: Clonogenic assay with 1.15.1-AE; type: cell-based, human
Method: as §1

M14 = assay: Clonogenic assay with 1.15.1-AE; type: cell-based, human
Method: as §1

HEMNLP = assay: Clonogenic assay with 1.15.1-AE; type: cell-based, human
Method: as §1

G361 = assay: Clonogenic assay with 1.15.1-AE; type: cell-based, human
Method: as §1

A2058 = assay: Clonogenic assay with 1.15.1-AE; type: cell-based, human
Method: as §1

UACC-62 = assay: Clonogenic assay with 1.15.1-AE; type: cell-based, human
Method: as §1

SK-Mel 5 = assay: Clonogenic assay with 1.15.1-AE; type: cell-based, human
Method: as §1

RPMI-7951 = assay: Clonogenic assay with 1.15.1-AE; type: cell-based, human
Method: as §1

SK-Mel 2 = assay: Clonogenic assay with 1.15.1-AE; type: cell-based, human
Method: as §1

UACC-257 = assay: Clonogenic assay with 1.15.1-AE; type: cell-based, human
Method: as §1

MEWO = assay: Clonogenic assay with 1.15.1-AE; type: cell-based, human
Method: as §1

HT144 = assay: Clonogenic assay with 1.15.1-AE; type: cell-based, human
Method: as §1

[1] = tested on: PL-21 (acute myeloid leukemia); assay: Clonogenic assay with 1.15.1-AE (methylcellulose); type: cell-based
Method: (§2) Lymphoma or leukemia cell lines were mixed with methylcellulose base media (R&D Systems, USA) and in various concentrations of unconjugated and Auristatin E-conjugated 1.15.1 antibody before plating onto 6-well tissue culture plates (Becton Dickinson, Franklin Lakes, N.J., USA). […] Plates were incubated at 37° C. and examined daily. On days 14-18, colonies on the plates were counted.

SUP-M2 (ALCL) = assay: Clonogenic assay with 1.15.1-AE (methylcellulose); type: cell-based
Method: as §2

[2] = tested on: MOLT-4 (acute T cell lymphoblastic leukemia); assay: Clonogenic assay with 1.15.1-AE (methylcellulose); type: cell-based
Method: as §2

[3] = tested on: U937 (histiocytic lymphoma, monocytic); assay: Clonogenic assay with 1.15.1-AE (methylcellulose); type: cell-based
Method: as §2

[4] = tested on: THP-1 (acute monocytic leukemia); assay: Clonogenic assay with 1.15.1-AE (methylcellulose); type: cell-based
Method: as §2

[5] = tested on: SR (anaplastic large T cell lymphoma, ALCL); assay: Clonogenic assay with 1.15.1-AE (methylcellulose); type: cell-based
Method: as §2

SU-DHL-1 (ALCL) = assay: Clonogenic assay with 1.15.1-AE (methylcellulose); type: cell-based
Method: as §2

Karpas 299 (ALCL) = assay: Clonogenic assay with 1.15.1-AE (methylcellulose); type: cell-based
Method: as §2

CR011-vcMMAE: anti-GPNMB antibody 1.15.1 coupled to monomethylauristatin E via protease-sensitive valine-citrulline linker
Clonogenic Assay with 1.15.1-AE IC50 (LOXIMVI): No effect | Clonogenic Assay with 1.15.1-AE IC50 (WM-266-4): 0.345 µg/mL | IC50 (WM-266-4): 2.3 nM | Clonogenic Assay with 1.15.1-AE IC50 (M14): Inconclusive | Clonogenic Assay with 1.15.1-AE IC50 (HEMNLP): Inconclusive | Clonogenic Assay with 1.15.1-AE IC50 (G361): 1.053 µg/mL | IC50 (G361): 6.5 nM | Clonogenic Assay with 1.15.1-AE IC50 (A2058): No effect | Clonogenic Assay with 1.15.1-AE IC50 (UACC-62): 0.697 µg/mL | IC50 (UACC-62): 4.3 nM | Clonogenic Assay with 1.15.1-AE IC50 (SK-Mel 5): 0.237 µg/mL | IC50 (SK-Mel 5): 1.6 nM | Clonogenic Assay with 1.15.1-AE IC50 (RPMI-7951): 0.972 µg/mL | IC50 (RPMI-7951): 6 nM | Clonogenic Assay with 1.15.1-AE IC50 (SK-Mel 2): 0.111 µg/mL | IC50 (SK-Mel 2): 0.75 nM | Clonogenic Assay with 1.15.1-AE IC50 (UACC-257): 0.825 µg/mL | IC50 (UACC-257): 5.5 nM | Clonogenic Assay with 1.15.1-AE IC50 (MEWO): Inconclusive | Clonogenic Assay with 1.15.1-AE IC50 (HT144): Inconclusive | Clonogenic Assay with 1.15.1-AE IC50 [1]: No effect | Clonogenic Assay with 1.15.1-AE IC50 (SUP-M2 (ALCL)): No growth | Clonogenic Assay with 1.15.1-AE IC50 [2]: No effect | Clonogenic Assay with 1.15.1-AE IC50 [3]: 0.34 µg/mL | IC50 [3]: 2.4 nM | Clonogenic Assay with 1.15.1-AE IC50 [4]: 0.207 µg/mL | IC50 [4]: 1.4 nM | Clonogenic Assay with 1.15.1-AE IC50 [5]: 0.296 µg/mL | IC50 [5]: 2 nM | Clonogenic Assay with 1.15.1-AE IC50 (SU-DHL-1 (ALCL)): No effect | Clonogenic Assay with 1.15.1-AE IC50 (Karpas 299 (ALCL)): Inconclusive
